As usually defined, the inhibition is the change of the read-out against control, counted positive when it falls.

In patent US20140171431A1, “AZOLE HETEROCYCLIC COMPOUND, PREPARATION METHOD, PHARMACEUTICAL COMPOSITION AND USE” (priority 2011, published 2014) one finds inhibition data, which are given here for 20 molecules.

In this experiment the target is T1, Lp-PLA2 in rabbit serum (Oryctolagus cuniculus, UniProt G1SE06).
T1 construct: from tissue; host or cells: rabbit serum
T1 sequence (G1SE06 22-423): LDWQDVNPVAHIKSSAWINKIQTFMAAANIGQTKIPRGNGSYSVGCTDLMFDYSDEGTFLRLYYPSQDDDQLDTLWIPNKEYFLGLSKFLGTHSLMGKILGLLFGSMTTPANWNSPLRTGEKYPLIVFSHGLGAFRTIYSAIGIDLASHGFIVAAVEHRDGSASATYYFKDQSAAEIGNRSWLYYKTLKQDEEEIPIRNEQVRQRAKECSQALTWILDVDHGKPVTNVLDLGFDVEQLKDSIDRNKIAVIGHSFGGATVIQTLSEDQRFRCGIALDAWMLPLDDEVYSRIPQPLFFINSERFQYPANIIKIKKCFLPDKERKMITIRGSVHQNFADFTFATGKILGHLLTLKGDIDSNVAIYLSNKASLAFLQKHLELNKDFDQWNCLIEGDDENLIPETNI
Kind of experiment: In vitro inhibitory activity towards the enzyme Lp-PLA2 in rabbit serum, [3H]PAF substrate. The format is biochemical. The conditions noted are these: rabbit serum; for inhibition at 0.1 µM: 100 nM, read-out: inhibition, %. The method, then:
The activities of compounds were measured using [^3H] labeled platelet activating factor ([^3H]PAF, Perkinelmer, Lot NET910) as the substrate. The reaction was carried out in a system containing 50 mmol/L HEPES and 150 mmol/L NaCl (pH 7.4) in a total volume of 200 μl. First, 10 μL rabbit serum and 10 μl DMSO solution of the test compound were added to the system and preincubated for 10 min at 37° C. Then 20 nM [^3H]PAF was added as listed in table 1 to start the reaction and incubated for a further 10 min at 37° C. After that, 600 μl of CHCl3/MeOH (2:1) was added and the resulting mixture was vortex mixed and the reaction was stopped. After settled for a while, the mixture was centrifugated at 12000×g for 15 min. The supernatant was transferred to a new tube and 200 μl of CHCl3 was added. The mixture was mixed by vortexing and then settled or centrifugated for 2 min. A 100 μl portion of the supernatant was then collected for radioactivity intensity measurement.
The inhibition rate was determined by the following equation:
Inhibitory rate (%)=1−(DPMcompound tube−DPMblank tube)/(DPMcontrol tube−DPMblank tube)*100%
(Note: DPM is radioactivity intensity unit.)

The molecule `CCCCCCCC1NC(Cn2c(SCc3ccc(F)cc3)nc(=O)c3c2CCC3)=NO1` (centres unmarked) [Example 1, 2-(4-fluorobenzylthio)-1-((5-n-heptyl-4,5-dihydro-1,2,4-oxadiazol-3-yl)methyl)-6,7-dihydro-1H-cyclopenta[d]pyrimidin-4(5H)-one] showed an inhibition at 1 µM of 10% and an inhibition at 10 µM of 62.6%.

Consider `CCCCCCCCCCC1NC(Cn2c(SCc3ccc(F)cc3)nc(=O)c3c2CCC3)=NO1` (centres unmarked) [Example 2, 1-((5-n-decyl-4,5-dihydro-1,2,4-oxadiazol-3-yl)methyl)-2-(4-fluorobenzylthio)-6,7-dihydro-1H-cyclopenta[d]pyrimidin-4(5H)-one], for which the inhibition at 1 µM was found to be 26.6% and testing at 10 µM gave an inhibition of 82.7%.

`CCCCCCCC1NC(Cn2c(SCc3ccc(F)cc3)cc(=O)c3ccccc32)=NO1` (centres unmarked) [Example 3, 2-(4-fluorobenzylthio)-1-((5-n-heptyl-4,5-dihydro-1,2,4-oxadiazol-3-yl)methyl)quinolin-4(1H)-one] registered an inhibition at 10 µM of 12.5%.

Molecule `CCCC1NC(Cn2c(SCc3ccc(F)cc3)nc(=O)c3c2CCC3)=NO1` (centres unmarked) [Example 6, 2-(4-fluorobenzylthio)-1-((5-n-propyl-4,5-dihydro-1,2,4-oxadiazol-3-yl)methyl)-6,7-dihydro-1H-cyclo-penta[d]pyrimidin-4(5H)-one] registered an inhibition at 1 µM of 16.2% and an inhibition at 10 µM of 74%.

Molecule `O=c1nc(SCc2ccc(F)cc2)n(CC2=NOC(c3ccc(-c4ccc(C(F)(F)F)cc4)cc3)N2)c2c1CCC2` (centres unmarked) [Example 7, 2-(4-fluorobenzylthio)-1-((5-(4′-(trifluoromethyl)biphen-yl-4-yl)-4,5-dihydro-1,2,4-oxadiazol-3-yl)methyl)-6,7-dihydro-1H-cyclo-penta[d]pyrimidin-4(5H)-one] came in with an inhibition at 1 µM of 25% and an inhibition at 10 µM of 60.3%.

In turn, `CCCC/C=C/N1C(Cn2c(SCc3ccc(F)cc3)nc(=O)c3c2CCC3)=NOC1CCCCCCC` (centres unmarked) [Example 18, (E)-2-(4-fluorobenzylthio)-1-((5-n-heptyl-4-(n-hex-1-enyl)-4,5-dihydro-1,2,4-ox-adiazol-3-yl)methyl)-6,7-di-hydro-1H-cyclopenta[d]py-rimidin-4(5H)-one] gave an inhibition at 1 µM of 7.4% and an inhibition at 10 µM of 41.9%.

For the molecule `O=c1nc(SCc2cccc(F)c2F)n(CC2=NOC(c3ccc(-c4ccc(C(F)(F)F)cc4)cc3)N2CCN2CCOCC2)c2c1CCC2` (centres unmarked) [Example 19, 2-(2,3-difluorobenzylthio)-1-((4-(2-morpholinoethyl)-5-(4′-(trifluoromethyl)biphenyl-4-yl)-4,5-dihydro-1,2,4-oxadiazol-3-yl)methyl)-6,7-dihydro-1H-cyclopenta[d]pyrimidin-4(5H)-one], the inhibition at 1 µM is 29% and the inhibition at 10 µM stood at 76.8%.

In turn, `O=c1nc(SCc2ccc(F)cc2)n(CC2=NOC(c3ccc(-c4ccc(C(F)(F)F)cc4)cc3)N2CCN2CCCCC2)c2c1CCC2` (centres unmarked) [Example 20, 2-(4-fluorobenzylthio)-1-((4-(2-(piperidin-1-yl)ethyl)-5-(4′-(trifluoromethyl)biphenyl-4-yl)-4,5-dihydro-1,2,4-oxadiazol-3-yl)methyl)-6,7-dihydro-1H-cyclopenta[d]pyrimidin-4(5H)-one] registered an inhibition at 1 µM of 31% and an inhibition at 10 µM of 86.6%.

The molecule `CCOC(=O)N1CCC(N2C(Cn3c(SCc4cccc(F)c4F)nc(=O)c4c3CCC4)=NOC2c2ccc(-c3ccc(C(F)(F)F)cc3)cc2)CC1` (centres unmarked) [Example 21, ethyl 4-(3-((2-(2,3-difluorobenzylthio)-4-oxo-4,5,6,7-tetrahydro-1H-cyclopenta[d]pyrimidin-1-yl)methyl)-5-(4′-(trifluoromethyl)biphenyl-4-yl)-1,2,4-oxadiazol-4(5H)-yl)piperidine-1-carboxylate] gave an inhibition at 10 µM of 51.2%.

`CCOC(=O)N1CCC(N2C(Cn3c(SCc4ccc(F)cc4)nc(=O)c4c3CCC4)=NOC2c2ccc(-c3ccc(C(F)(F)F)cc3)cc2)CC1` (centres unmarked) [Example 22]: testing at 10 µM gave an inhibition of 63%.

As to `O=c1nc(SCc2cccc(F)c2F)n(CC2=NOC(c3ccc(-c4ccc(C(F)(F)F)cc4)cc3)N2CCN2CCCCC2)c2c1CCC2` (centres unmarked) [Example 23, 2-(2,3-difluorobenzylthio)-1-((4-(2-(piperidin-1-yl)ethyl)-5-(4′-(trifluoromethyl)biphenyl-4-yl)-4,5-dihydro-1,2,4-oxadiazol-3-yl)methyl)-6,7-dihydro-1H-cyclopenta[d]pyrimidin-4(5H)-one], the inhibition at 1 µM worked out at 33% and 10 µM produced 82.4% inhibition.

`CCN(CC)CCN1C(Cn2c(SCc3ccc(F)cc3)nc(=O)c3c2CCC3)=NOC1c1ccc(-c2ccc(C(F)(F)F)cc2)cc1` (centres unmarked) [Example 24, 1-((4-(2-(diethylamino)eth-yl)-5-(4′-(trifluorometh-yl)biphenyl-4-yl)-4,5-di-hydro-1,2,4-oxadiazol-3-yl)methyl)-2-(4-fluorobenzyl-thio)-6,7-dihydro-1H-cyclopenta[d]pyrimidin-4(5H)-one] returned an inhibition at 1 µM of 16.3% and an inhibition at 10 µM of 78.5%.

Consider `O=c1nc(SCc2ccc(F)cc2)n(CC2=NOC(c3ccc(-c4ccc(C(F)(F)F)cc4)cc3)N2CCN2CCOCC2)c2c1CCC2` (centres unmarked) [Example 25, 2-(4-fluorobenzylthio)-1-((4-(2-morpholinoethyl)-5-(4′-(trifluoromethyl)bi-phenyl-4-yl)-4,5-dihydro-1,2,4-oxadiazol-3-yl)meth-yl)-6,7-dihydro-1H-cy-clopenta[d]pyrimidin-4(5H)-one], for which testing at 1 µM gave an inhibition of 23% and at 10 µM the inhibition was 74.3%.

On to `O=c1nc(SCc2ccc(F)cc2)n(Cc2ncc(-c3ccccc3)[nH]2)c2c1CCC2` [Example 26, 2-(4-fluorobenzylthio)-1-((5-phenyl-1H-imidazol-2-yl)methyl)-6,7-dihydro-1H-cyclopenta[d]pyrimidin-4(5H)-one], for which the inhibition at 10 µM is 7.4%.

As for `Cn1cc(Cc2cn(Cc3nccn3Cc3ccc(-c4ccc(C(F)(F)F)cc4)cc3)c(SCc3ccc(F)cc3)nc2=O)cn1` [Example 29, 2-(4-fluorobenzylthio)-5-((1-methyl-1H-pyrazol-4-yl)methyl)-1-((1-((4′-(trifluoromethyl)biphenyl-4-yl)methyl)-1H-imidazol-2-yl)methyl)pyrimidin-4(1H)-one], the inhibition at 0.1 µM came out at 12.6% and the inhibition at 1 µM stood at 64.9%.

As for `CCCCCCCCCCCCn1ccnc1Cn1c(SCc2ccc(F)cc2)nc(=O)c2c1CCC2` [Example 30, 1-((1-n-dodecyl-1H-imidazol-2-yl)methyl)-2-(4-fluorobenzylthio)-6,7-dihydro-1H-cyclopenta[d]pyrimidin-4(5H)-one], at 1 µM the inhibition was 42.3% and the inhibition at 10 µM was determined as 87.5%.

Turning to `O=c1nc(SCc2ccc(F)cc2)n(Cc2nccn2Cc2ccc(-c3ccc(Cl)cc3)cc2)c2c1CCC2` [Example 32, 1-((1-((4′-chlorobiphenyl-4-yl)methyl)-1H-imidazol-2-yl)methyl)-2-(4-fluorobenzylthio)-6,7-dihydro-1H-cyclopenta[d]pyrimidin-4(5H)-one], the inhibition at 0.1 µM is 2.1% and the inhibition at 1 µM was 50%.

Regarding `Cc1ccc(-c2ccc(Cn3ccnc3Cn3cc(Cc4cnn(C)c4)c(=O)nc3SCc3ccc(F)cc3)cc2)cc1` [Example 34, 2-(4-fluorobenzylthio)-5-((1-methyl-1H-pyrazol-4-yl)methyl)-1-((1-((4′-methylbiphenyl-4-yl)methyl)-1H-imidazol-2-yl)methyl)pyrimidin-4(1H)-one], the inhibition at 1 µM was 14.6%.

`CCN(CC)CCn1c(-c2ccc(-c3ccc(C(F)(F)F)cc3)cc2)cnc1Cn1c(SCc2ccc(F)cc2)nc(=O)c2c1CCC2` [Example 38, 1-((1-(2-(diethylamino)ethyl)-5-(4′-(trifluoromethyl)biphenyl-4-yl)-1H-imidazol-2-yl)methyl)-2-(4-fluorobenzylthio)-6,7-dihydro-1H-cyclopenta[d]pyrimidin-4(5H)-one]: at 1 µM the inhibition was 16% and testing at 10 µM gave an inhibition of 20.4%.

For the molecule `Cc1cnc(Cn2c(SCc3ccc(F)cc3)nc(=O)c3c2CCC3)n1Cc1ccc(-c2ccc(C(F)(F)F)cc2)cc1` [Example 40, 2-(4-fluorobenzylthio)-1-((5-methyl-1-((4′-(trifluoromethyl)biphenyl-4-yl)methyl)-1H-imidazol-2-yl)methyl)-6,7-dihydro-1H-cyclopenta[d]pyrimidin-4 (5H)-one], the inhibition at 0.1 µM was determined as 53.1% and at 1 µM the inhibition was 90.7%.
